From patent US6489487B1, “Triazolone derivatives, use thereof, and intermediates therefor” (Sumitomo Chemical Company, Limited, priority 1998, dated 2002)

melting point [°C] | SMILES
138.9 | Cc1ccc(-c2ccccc2)cc1Cn1c(C)nn(C)c1=O [Compound 10, 2,5-dimethyl-4-(2-methyl-5-phenylbenzyl)-2,4-dihydro-3H-1,2,4-triazol-3-one]
102.4 | Cc1ccc(-c2ccccc2)cc1Cn1c(C2CC2)nn(C)c1=O [Compound 538, 5-cyclopropyl-2-methyl-4-(2-methyl-5-phenylbenzyl)-2,4-dihydro-3H-1,2,4-triazol-3-one]
115.7 | Cc1ccc(-c2ccccc2)cc1Cn1c(Cl)nn(C)c1=O [Compound 7, 5-chloro-2-methyl-4-(2-methyl-5-phenylbenzyl)-2,4-dihydro-3H-1,2,4-triazol-3-one]
95.6 | CSc1nn(C)c(=O)n1Cc1cc(-c2ccccc2)ccc1C [Compound 8, 5-methylthio-2-methyl-4-(2-methyl-5-phenylbenzyl)-2,4-dihydro-3H-1,2,4-triazol-3-one]
